Patent US20240261398A1 (priority 2018, published 2024)
Counter-ions that a name gives are not always drawn. Like-named read-outs stand apart in the source and are kept apart here.

Assays:
[1] = test system: A/California/07/2009 virus (H1N1; CA07); parameters: species or system BALB/c mice; conditions: mouse, in vivo
[2] = test system: A/California/07/2009 virus (H1N1; CA07); parameters: species or system BALB/c mice; conditions: mouse, in vivo; remark: listed apart in the source
influenza virus = format: in vivo, mice
Ebola GP protein = format: in vivo, BALB/c mice; conditions: for Mean value of antibody titers, Vaccine + compound: Ebola VLP 1 μg/dose + compound, i.m. twice, serum two weeks after second immunization, mean of 4 mice; for Antibody titer ratio (a): [VLP + candidate compound]/[VLP + AddaVax]; for Mean value of antibody titers, Only compound (c): compound alone, mice treated as in the influenza adjuvant screening

Compound: CCN(Cc1cccc(S(=O)(=O)[O-])c1)c1ccc(C(=C2C=CC(=[N+](CC)Cc3cccc(S(=O)(=O)[O-])c3)C=C2)c2ccccc2S(=O)(=O)[O-])cc1.[Na+].[Na+]
- Antibody titers in primary screening, Vaccine + compound [1]: 1333.33
- Relative ratio of antibody titer to alum (compound/alum), primary screening [1]: 0.69
- Antibody titers in secondary screening, Vaccine + compound [2]: 990
- Relative ratio of antibody titer to alum (compound/alum), secondary screening [2]: 1.65

Compound: O.O=P([O-])([O-])OCC(O)CO.[Ca+2] (centres unmarked)
- Antibody titers in primary screening, Vaccine + compound [1]: 1920.00
- Relative ratio of antibody titer to alum (compound/alum), primary screening [1]: 1.71
- Antibody titers in secondary screening, Vaccine + compound [2]: 4800
- Relative ratio of antibody titer to alum (compound/alum), secondary screening [2]: 3.33
- Antibody titers (IgG) (influenza virus; mouse, in vivo): 261.25

Compound: CCN(Cc1cccc(S(=O)(=O)[O-])c1)c1ccc(C(=C2C=CC(=[N+](CC)Cc3cccc(S(=O)(=O)[O-])c3)C=C2)c2ccc(O)cc2S(=O)(=O)[O-])cc1.[Na+].[Na+]
- Antibody titers in primary screening, Vaccine + compound [1]: 2133.33
- Relative ratio of antibody titer to alum (compound/alum), primary screening [1]: 1.00
- Antibody titers in secondary screening, Vaccine + compound [2]: 440
- Relative ratio of antibody titer to alum (compound/alum), secondary screening [2]: 0.73

Compound: CC1(C)[C@@H](O[C@H]2O[C@H](C(=O)O)[C@@H](O)[C@H](O)[C@H]2O[C@@H]2O[C@H](C(=O)O)[C@@H](O)[C@H](O)[C@H]2O)CC[C@]2(C)[C@H]3C(=O)C=C4[C@@H]5C[C@@](C)(C(=O)O)CC[C@]5(C)CC[C@@]4(C)[C@]3(C)CC[C@@H]12
- Antibody titers in primary screening, Vaccine + compound [1]: 5973.33
- Antibody titers in secondary screening, Vaccine + compound [2]: 2560

Compound: O=C([O-])[C@H](O)[C@@H](O)[C@H](O)[C@H](O)CO.O=C([O-])[C@H](O)[C@@H](O)[C@H](O)[C@H](O)CO.[Fe+2]
- Antibody titers in primary screening, Vaccine + compound [1]: 853.33
- Relative ratio of antibody titer to alum (compound/alum), primary screening [1]: 0.76
- Antibody titers in secondary screening, Vaccine + compound [2]: 3040
- Relative ratio of antibody titer to alum (compound/alum), secondary screening [2]: 1.90

Compound: O=C([O-])[C@H](O)[C@@H](O)[C@H](O)[C@H](O)CO.[Na+]
- Mean value of antibody titers, Only compound [2]: <10
- Mean value of antibody titers, Vaccine + compound [2]: 1600.00
- Relative ratio of antibody titer to alum (Compound/alum) [2]: 1.00

Compound: O=S([O-])O.[Na+]
- Mean value of antibody titers, Only compound [2]: <10
- Mean value of antibody titers, Vaccine + compound [2]: 730.00
- Relative ratio of antibody titer to alum (Compound/alum) [2]: 0.55

Compound: CC(C)=CCC[C@@H](C)CC=O
- Antibody titers in primary screening, Vaccine + compound [1]: 333.33
- Antibody titers in secondary screening, Vaccine + compound [2]: 35

Compound: CC(C)=CCCC(C)CCO (racemic) [(+/−)-Citronellol]
- Antibody titers in primary screening, Vaccine + compound [1]: 960.00
- Antibody titers in secondary screening, Vaccine + compound [2]: 260

Compound: CC(/C=C/C=C(C)/C=C/C(=O)O)=C\C=C\C=C(C)\C=C\C=C(C)\C=C\C(=O)O (stereo in doubt) [Norbixin]
- Antibody titers in primary screening, Vaccine + compound [1]: 7680.00
- Relative ratio of antibody titer to alum (compound/alum), primary screening [1]: 8.00
- Relative ratio of antibody titer to alum (compound/alum), secondary screening [2]: 5.14
- virus-specific antibody titers compared with the alum adjuvant [2]: equal to or higher than the alum adjuvant did
- Antibody titers (IgG) (influenza virus; mouse, in vivo): 340

Compound: CC(C)C1=CC2=CC[C@@H]3[C@](C)(CCC[C@@]3(C)C(=O)O)[C@H]2CC1 [Abietic acid]
- Antibody titers in primary screening, Vaccine + compound [1]: 533.33
- Antibody titers in secondary screening, Vaccine + compound [2]: 1280

Compound: Cc1c(C(=O)O)c(O)cc2c1C(=O)c1c(O)c([C@@H]3O[C@H](CO)[C@@H](O)[C@H](O)[C@H]3O)c(O)c(O)c1C2=O [Carminic acid]
- Antibody titers in primary screening, Vaccine + compound [1]: 746.67
- Antibody titers in secondary screening, Vaccine + compound [2]: 960

Compound: CC(/C=C/C=C(\C)C(=O)O[C@@H]1O[C@H](CO[C@@H]2O[C@H](CO)[C@@H](O)[C@H](O)[C@H]2O)[C@@H](O)[C@H](O)[C@H]1O)=C\C=C\C=C(C)\C=C\C=C(/C)C(=O)O[C@@H]1O[C@H](CO[C@@H]2O[C@H](CO)[C@@H](O)[C@H](O)[C@H]2O)[C@@H](O)[C@H](O)[C@H]1O [Crocin]
- Antibody titers in primary screening, Vaccine + compound [1]: 1066.67
- Antibody titers in secondary screening, Vaccine + compound [2]: 480

Compound: CCO [Ethanol]
- Mean value of antibody titers, Vaccine + compound (Ebola GP protein): 140.00
- Antibody titer ratio (a) (Ebola GP protein): 0.23
- Mean value of antibody titers, Only compound (c) (Ebola GP protein): <10
- Mean value of antibody titers, Only compound [2]: <10
- Mean value of antibody titers, Vaccine + compound [2]: 400.00
- Relative ratio of antibody titer to alum (Compound/alum) [2]: 0.56

Compound: CC(C)=CCC/C(C)=C/COC=O [Geranyl Formate]
- Antibody titers in primary screening, Vaccine + compound [1]: 2560.00
- Antibody titers in secondary screening, Vaccine + compound [2]: 960

Compound: COc1ccc([C@@H]2CC(=O)c3c(O)cc(O[C@@H]4O[C@H](CO[C@@H]5O[C@@H](C)[C@H](O)[C@@H](O)[C@H]5O)[C@@H](O)[C@H](O)[C@H]4O)cc3O2)cc1O [Hesperidin]
- Antibody titers in primary screening, Vaccine + compound [1]: 3840.00
- Relative ratio of antibody titer to alum (compound/alum), primary screening [1]: 1.13
- Antibody titers in secondary screening, Vaccine + compound [2]: 2240
- Relative ratio of antibody titer to alum (compound/alum), secondary screening [2]: 4.00

Compound: CC(CC=O)CCCC(C)(C)O (centres unmarked) [Hydroxycitronellal]
- Antibody titers in primary screening, Vaccine + compound [1]: 2773.33
- Antibody titers in secondary screening, Vaccine + compound [2]: 1280

Compound: O=C1/C(=C2\Nc3ccc(S(=O)(=O)[O-])cc3C2=O)Nc2ccc(S(=O)(=O)[O-])cc21.[Na+].[Na+] [Indigo Carmine]
- Antibody titers in primary screening, Vaccine + compound [1]: 1280.00
- Relative ratio of antibody titer to alum (compound/alum), primary screening [1]: 1.50
- Antibody titers in secondary screening, Vaccine + compound [2]: 485
- Relative ratio of antibody titer to alum (compound/alum), secondary screening [2]: 0.81

Compound: CC=Cc1ccc(O)c(OC)c1 [Isoeugenol]
- Antibody titers in primary screening, Vaccine + compound [1]: 2986.67
- Antibody titers in secondary screening, Vaccine + compound [2]: 140

Compound: c1ccc2cnccc2c1 [Isoquinoline]
- Antibody titers in primary screening, Vaccine + compound [1]: 1493.33
- Antibody titers in secondary screening, Vaccine + compound [2]: 1200

Compound: COC(=O)c1ccccc1N [Methyl Anthranilate]
- Antibody titers in primary screening, Vaccine + compound [1]: 693.33
- Antibody titers in secondary screening, Vaccine + compound [2]: 2240

Compound: C[C@@H]1O[C@@H](O[C@H]2[C@H](Oc3cc(O)c4c(c3)O[C@H](c3ccc(O)cc3)CC4=O)O[C@H](CO)[C@@H](O)[C@@H]2O)[C@H](O)[C@H](O)[C@H]1O [Naringin]
- Antibody titers in primary screening, Vaccine + compound [1]: 2133.33
- Antibody titers in secondary screening, Vaccine + compound [2]: 2240

Compound: COC(=O)[C@H](Cc1ccccc1)NC(=O)[C@H](CC(=O)O)NCCC(C)(C)C [Neotame]
- Antibody titers in primary screening, Vaccine + compound [1]: 2560.00
- Relative ratio of antibody titer to alum (compound/alum), primary screening [1]: 2.00
- Antibody titers in secondary screening, Vaccine + compound [2]: 720
- Relative ratio of antibody titer to alum (compound/alum), secondary screening [2]: 1.00
- virus-specific antibody titers compared with the alum adjuvant [2]: equal to or higher than the alum adjuvant did

Compound: [Cl-].[K+] [Potassium chloride]
- Mean value of antibody titers, Only compound [2]: <10
- Mean value of antibody titers, Vaccine + compound [2]: 2920.00
- Relative ratio of antibody titer to alum (Compound/alum) [2]: 1.83

Compound: Cc1cc2nc3c(=O)[nH]c(=O)nc-3n(C[C@H](O)[C@H](O)[C@H](O)CO)c2cc1C [Riboflavin]
- Antibody titers in primary screening, Vaccine + compound [1]: 2560.00
- Antibody titers in secondary screening, Vaccine + compound [2]: 2240
- Antibody titers (IgG) (influenza virus; nasal immunization with vaccine + compound, 100 μg/dose (saponin 10 μg/dose), Day 0, 14, 28): 880

Compound: C[C@@H]1O[C@@H](OC[C@H]2O[C@@H](Oc3c(-c4ccc(O)c(O)c4)oc4cc(O)cc(O)c4c3=O)[C@H](O)[C@@H](O)[C@@H]2O)[C@H](O)[C@H](O)[C@H]1O [Rutin]
- Antibody titers in primary screening, Vaccine + compound [1]: 2560.00
- Antibody titers in secondary screening, Vaccine + compound [2]: 1320

Compound: CC(=O)[O-].[Na+] [Sodium acetate]
- Mean value of antibody titers, Only compound [2]: <10
- Mean value of antibody titers, Vaccine + compound [2]: 740.00
- Relative ratio of antibody titer to alum (Compound/alum) [2]: 0.66

Compound: O=C([O-])c1ccccc1.[Na+] [Sodium benzoate]
- Mean value of antibody titers, Only compound [2]: <10
- Mean value of antibody titers, Vaccine + compound [2]: 1600.00
- Relative ratio of antibody titer to alum (Compound/alum) [2]: 1.21
- virus-specific antibody titers compared with the alum adjuvant [2]: equal to or higher than the alum adjuvant did

Compound: [Br-].[Na+] [Sodium bromide]
- Mean value of antibody titers, Only compound [2]: <10
- Mean value of antibody titers, Vaccine + compound [2]: 970.00
- Relative ratio of antibody titer to alum (Compound/alum) [2]: 0.87

Compound: O=S([O-])[O-].[Na+].[Na+] [Sodium sulfite]
- Mean value of antibody titers, Only compound [2]: <10
- Mean value of antibody titers, Vaccine + compound [2]: 2080.00
- Relative ratio of antibody titer to alum (Compound/alum) [2]: 1.30
- virus-specific antibody titers compared with the alum adjuvant [2]: equal to or higher than the alum adjuvant did

Compound: O=S([O-])([O-])=S.[Na+].[Na+] [Sodium thiosulfate]
- Mean value of antibody titers, Only compound [2]: <10
- Mean value of antibody titers, Vaccine + compound [2]: 1320.00
- Relative ratio of antibody titer to alum (Compound/alum) [2]: 1.00

Compound: Cn1cnc2c1c(=O)[nH]c(=O)n2C [Theobromine]
- Antibody titers in primary screening, Vaccine + compound [1]: 1333.33
- Antibody titers in secondary screening, Vaccine + compound [2]: 1440

Compound: OC[C@@H](O)[C@H](O)[C@@H](O)CO [Xylitol]
- Mean value of antibody titers, Only compound [2]: <10
- Mean value of antibody titers, Vaccine + compound [2]: 560.00
- Relative ratio of antibody titer to alum (Compound/alum) [2]: 0.35

Compound: [O]=[Zn] [Zinc oxide]
- Mean value of antibody titers, Vaccine + compound (Ebola GP protein): 400.00
- Antibody titer ratio (a) (Ebola GP protein): 0.67
- Mean value of antibody titers, Only compound (c) (Ebola GP protein): <10

Compound: CC1=C(/C=C/C(C)=C/C=C/C(C)=C/C=C/C=C(C)/C=C/C=C(C)/C=C/C2=C(C)CCCC2(C)C)C(C)(C)CCC1 [β-Carotene]
- Antibody titers in primary screening, Vaccine + compound [1]: 960.00
- Antibody titers in secondary screening, Vaccine + compound [2]: 1120

Compound: OC[C@H]1O[C@@H]2O[C@H]3[C@H](O)[C@@H](O)[C@@H](O[C@H]4[C@H](O)[C@@H](O)[C@@H](O[C@H]5[C@H](O)[C@@H](O)[C@@H](O[C@H]6[C@H](O)[C@@H](O)[C@@H](O[C@H]7[C@H](O)[C@@H](O)[C@@H](O[C@H]8[C@H](O)[C@@H](O)[C@@H](O[C@H]1[C@H](O)[C@H]2O)O[C@@H]8CO)O[C@@H]7CO)O[C@@H]6CO)O[C@@H]5CO)O[C@@H]4CO)O[C@@H]3CO [β-Cyclodextrin]
- Antibody titers in primary screening, Vaccine + compound [1]: 373.33
- Relative ratio of antibody titer to alum (compound/alum), primary screening [1]: 0.22
- Antibody titers in secondary screening, Vaccine + compound [2]: 1440
- Relative ratio of antibody titer to alum (compound/alum), secondary screening [2]: 0.90
